Biological target: tau (Homo sapiens, UniProt P10636)
Assay: MCE Phenols Library screening, tau biosensor cell seeding assay (AvZ)
Format: cell-based
Conditions: for Z repl 1 / Z Repl 2: Z score; for Z repl 1 / raw data 1: replicate 1; for Z Repl 2 / raw data 2: replicate 2; for AvZ (average z score of seeding, SDs from the mean level of seeding): 10 μM phenol in cell cultures, AD brain homogenate preincubated 16 hours, two biological replicates, positive = catalyzes seeding, negative = inhibits
[1] = average Z score of the two replicates, MCE Phenols Library screen
[2] = average puncta of the two replicates
[3] = average Z score of two replicates, Phenols Library screen

tau, sequence (P10636 623-695 limits assumed): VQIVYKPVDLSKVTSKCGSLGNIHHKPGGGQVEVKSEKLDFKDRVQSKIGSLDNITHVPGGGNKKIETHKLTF

O=c1cc(-c2ccc(O)cc2)oc2cc(O)c(O)c(O)c12 [Scutellarein]
Z repl 1: -0.619
Z Repl 2: -1.142
av Z [1]: -0.88
av puncta (average of raw data 1 and 2): 9747.69
raw data 1 (puncta): 18922.2
raw data 2 (puncta): 573.179

O=C(O)[C@H]1O[C@@H](Oc2cc3oc(-c4ccc(O)cc4)cc(=O)c3c(O)c2O)[C@H](O)[C@@H](O)[C@@H]1O [Scutellarin]
Z repl 1: -1.927
Z Repl 2: -0.903
av Z [1]: -1.415
av puncta (average of raw data 1 and 2): 3169.77
raw data 1 (puncta): 3217.73
raw data 2 (puncta): 3121.8

COc1cc(C[C@@H](CO)[C@H](CO)Cc2ccc(O)c(OC)c2)ccc1O [Secoisolariciresinol]
Z repl 1: 1.372
Z Repl 2: 0.426
av Z (average Z score of the two replicates, tau biosensor seeding, MCE Phenols Library screen): 0.899
av puncta (average of raw data 1 and 2): 30068
raw data 1 (puncta): 42819.5
raw data 2 (puncta): 17316.5

O=C(O)c1cc(O)c2c(c1)[C@H]([C@H]1c3cccc(O)c3C(=O)c3c(O)cc(C(=O)O)cc31)c1cccc(O)c1C2=O [Sennidin B]
Z repl 1: 0.553
Z Repl 2: -0.073
av Z (average Z score of the two replicates, tau seeding): 0.24
av puncta (average of raw data 1 and 2): 22482.9
raw data 1 (puncta): 32984.9
raw data 2 (puncta): 11981

O=C(O)c1cc(O)c2c(c1)[C@H]([C@H]1c3cc(C(=O)O)cc(O)c3C(=O)c3c(O[C@@H]4O[C@H](CO)[C@@H](O)[C@H](O)[C@H]4O)cccc31)c1cccc(O[C@@H]3O[C@H](CO)[C@@H](O)[C@H](O)[C@H]3O)c1C2=O [Sennoside A]
Z repl 1: -1.043
Z Repl 2: -0.801
av Z [1]: -0.922
av puncta (average of raw data 1 and 2): 9021.29
raw data 1 (puncta): 13826.4
raw data 2 (puncta): 4216.17

Oc1ccc2c(c1)OCO2 [Sesamol]
Z repl 1: -0.018
Z Repl 2: -1.03
av Z [1]: -0.524
av puncta [2]: 13948.1
raw data 1 (puncta): 26133.2
raw data 2 (puncta): 1763.04

COc1cc(/C=C/C(=O)O[C@H]2[C@H](O)[C@@H](CO)O[C@@]2(CO)O[C@H]2O[C@H](CO)[C@@H](O)[C@H](O)[C@H]2O)ccc1O [Sibiricose A5]
Z repl 1: -0.765
Z Repl 2: -0.196
av Z [1]: -0.481
av puncta [2]: 13916.2
raw data 1 (puncta): 17163.5
raw data 2 (puncta): 10668.8

COc1cc([C@@H]2Oc3c(O)cc([C@H]4Oc5cc(O)cc(O)c5C(=O)[C@@H]4O)cc3[C@H]2CO)ccc1O [Silychristin]
Z repl 1: 0.429
Z Repl 2: -0.406
av Z [3]: 0.012
av puncta (average of raw data 1 and 2): 19966.5
raw data 1 (puncta): 31503
raw data 2 (puncta): 8429.95

COc1cc(/C=C/C=O)cc(OC)c1O [Sinapaldehyde]
AvZ (average z score of seeding, SDs from the mean level of seeding): 0.096
Z repl 1: 0.021
Z Repl 2: 0.172
av puncta (average of raw data 1 and 2): 20601.9
raw data 1 (puncta): 26603.6
raw data 2 (puncta): 14600.1

COc1cc(/C=C/C(=O)OCC[N+](C)(C)C)cc(OC)c1O.N#C[S-] [Sinapine (thiocyanate)]
AvZ (average z score of seeding, SDs from the mean level of seeding): 0.005
Z repl 1: 0.104
Z Repl 2: -0.095
av puncta (average of raw data 1 and 2): 19676.8
raw data 1 (puncta): 27602.3
raw data 2 (puncta): 11751.4

COc1cc(/C=C/C(=O)OCC[N+](C)(C)C)cc(OC)c1O [Sinapine]
AvZ (average z score of seeding, SDs from the mean level of seeding): -0.633
AvZ (average z score of seeding, SDs from the mean level of seeding) (listed as sinapine): −0.633
Z repl 1: -0.962
Z Repl 2: -0.305
av puncta [2]: 12156.4
raw data 1 (puncta): 14803.5
raw data 2 (puncta): 9509.32

COC1=C[C@@H]2[C@@H]3Cc4ccc(OC)c(O)c4[C@]2(CCN3C)CC1=O.Cl [Sinomenine hydrochloride]
Z repl 1: -0.595
Z Repl 2: 0.066
av Z [1]: -0.264
av puncta [2]: 16340.1
raw data 1 (raw puncta): 19209.2
raw data 2 (raw puncta): 13470.9

C=C(C)[C@H](CC=C(C)C)Cc1c(O)cc(O)c2c1O[C@H](c1ccc(O)cc1O)CC2=O [Sophoraflavanone G]
Z repl 1: -0.704
Z Repl 2: -0.412
av Z [1]: -0.558
av puncta [2]: 13130.1
raw data 1 (puncta): 17897.8
raw data 2 (puncta): 8362.49

O=c1c(O)c(-c2ccc(O[C@@H]3O[C@H](CO)[C@@H](O)[C@H](O)[C@H]3O)c(O)c2)oc2cc(O)cc(O)c12 [Spiraeoside]
Z repl 1: -1.012
Z Repl 2: -0.12
av Z [1]: -0.566
av puncta [2]: 12842
raw data 1 (puncta): 14202.4
raw data 2 (puncta): 11481.5

COc1cc(O)c2c(=O)c3c(O[C@@H]4O[C@H](CO)[C@@H](O)[C@H](O)[C@H]4O)ccc(O)c3oc2c1 [Swertianolin]
Z repl 1: -0.114
Z Repl 2: 0.052
av Z [3]: -0.031
av puncta (average of raw data 1 and 2): 19147.5
raw data 1 (puncta): 24974.7
raw data 2 (puncta): 13320.3

COc1cc(C=O)cc(OC)c1O [Syringaldehyde]
AvZ (average z score of seeding, SDs from the mean level of seeding): -0.318
Z repl 1: 0.142
Z Repl 2: -0.778
av puncta [2]: 16255.1
raw data 1 (raw puncta): 28055.2
raw data 2 (raw puncta): 4454.92

COc1cc(C(=O)O)cc(OC)c1O [Syringic acid]
AvZ (average z score of seeding, SDs from the mean level of seeding): 0.082
Z repl 1: 0.138
Z Repl 2: 0.027
av puncta (average of raw data 1 and 2): 20525.8
raw data 1 (puncta): 28000.6
raw data 2 (puncta): 13051.1

COc1ccc(-c2oc3cc(O)cc(O)c3c(=O)c2O)cc1O [Tamarixetin]
Z repl 1: -0.357
Z Repl 2: -0.633
av Z [1]: -0.495
av puncta [2]: 14033.4
raw data 1 (puncta): 22060
raw data 2 (puncta): 6006.83

Reference: article PMC11784839, “Monoaminergic neurotransmitters are bimodal effectors of tau aggregation” (Science Advances, 2025)
